Reference: patent publication US12600696B2 (XENIOPRO GMBH, priority 2017, dated 2026)

Tested on: C2C12 cells (murine myoblast cells)
Test: alamarBlue proliferation assay with C2C12 cells
Type: cell-based
Details: 40 μM, 3 days treatment, single assay (preliminary), relative to DMSO basis level 1.0
Method: Compounds were tested on C2C12 cells using the alamarBlue® proliferation assay in analogy to the above described method with seeding the cells at an initial number of 2000 cells per 96-well and a duration of treatment with compounds for 3 days.
In one embodiment, two compounds of the invention were found so far to inhibit the growth of C2C12 cells (murine myoblast cells) obtainable from the Deutsche Sammlung von Mikroorganismen and Zellkulturen GmbH (DSMZ) under the accession number ACC 565. C2C12 cells were cultivated according to the protocol of the provider in RPMI 1640 medium (Fisherscientific, #11554526) containing 10% fetal bovine serum (Fisherscientific, #15517589).
A compound is considered as a growth inhibitor of C2C12 cells, if—at a reference concentration of 40 μM—the equally weighted arithmetic mean (AVE) of the six normalized fluorescence intensity values after addition of the corresponding standard deviation amounts to 0.9 or lower, in particular to 0.8 or lower, 0.7 or lower, 0.6 or lower, 0.4 or lower, and 0.2 or lower, relative to the overall basis level of 1.0. The overall basis level was calculated as the equally weighted arithmetic mean (AVE) of the six normalized values from the DMSO control measurements in analogy to the calculations performed for the test-compounds. […]

For Oc1ccc(C=Cc2cc(O)cc(O)c2)cc1 [RES, resveratrol, reference compound], the “equally weighted arithmetic mean (AVE) of six normalized fluorescence intensity values, activity range” value was 0.3 ± 0.0.
